Assays:
[1] = tested on: corneodesmosomes in stratum corneum tape strips; assay: Treatment of tape strips from psoriatic skin with proteases, corneodesmosome density by electron microscopy; set-up: species or system human; conditions: 22-50 nM recombinant SCCE or SCTE, 1-6 h at 37° C
Method: Tape strips are obtained according to a method described by Guerrin et al, 1998.
Small pieces of tape strips from control patients along with patients suffering from the skin conditions eczema, psoriasis, dermatitis and psoriasis are fixed for 2 h at 4° C. in Karnovsky fixative (2% paraformaldehyde, 2.5% gluteraldehyde in 0.1M phosphate buffer, pH 7.4). The samples are then washed three times in 0.1M phosphate buffer (pH7.4) containing 10% sucrose for 30 minutes each at 4° C.
Secondary fixation is carried out in aqueous 2% osmium tetroxide solution for 1 hour at room temperature. Dehydration is through a graded series of ethanol at room temperature (75% ethanol for 15 minutes; 95% ethanol for 15 minutes; 2 washes of 100% ethanol for 15 minutes; 100% ethanol dried over anhydrous copper sulphate for 15 minutes).
For resin embedding, samples are first placed in the intermediate solvent, propylene oxide, for two changes of 15 minutes duration. This is followed by infiltration in a 50:50 mixture of propylene oxide:araldite resin overnight at room temperature. […]
Ultrathin sections (70-90 nm) are cut on an ultramicrotome. […] Electron micrographs are recorded on Agfa Scientific 23D56 EM film.
Corneodesmosome density (area occupied by corneodesmosomes divided by total area of micrograph) is measured on electron micrographs of tape strips of each condition. […]

Corneodesmosin = biological target: T1, Corneodesmosin (Homo sapiens, UniProt Q15517); assay: Cleavage of adhesion proteins from human epidermis by recombinant SCCE/SCTE (immunoblot); format: biochemical; conditions: human epidermis protein extract incubated with active recombinant enzyme at 37 C
T1 construct: The native form of corneodesmosin has a molecular weight of between 50 and 56 kDa; from tissue; host or cells: human epidermis (TENP-40 buffer extract)
T1 sequence (Q15517 33-529): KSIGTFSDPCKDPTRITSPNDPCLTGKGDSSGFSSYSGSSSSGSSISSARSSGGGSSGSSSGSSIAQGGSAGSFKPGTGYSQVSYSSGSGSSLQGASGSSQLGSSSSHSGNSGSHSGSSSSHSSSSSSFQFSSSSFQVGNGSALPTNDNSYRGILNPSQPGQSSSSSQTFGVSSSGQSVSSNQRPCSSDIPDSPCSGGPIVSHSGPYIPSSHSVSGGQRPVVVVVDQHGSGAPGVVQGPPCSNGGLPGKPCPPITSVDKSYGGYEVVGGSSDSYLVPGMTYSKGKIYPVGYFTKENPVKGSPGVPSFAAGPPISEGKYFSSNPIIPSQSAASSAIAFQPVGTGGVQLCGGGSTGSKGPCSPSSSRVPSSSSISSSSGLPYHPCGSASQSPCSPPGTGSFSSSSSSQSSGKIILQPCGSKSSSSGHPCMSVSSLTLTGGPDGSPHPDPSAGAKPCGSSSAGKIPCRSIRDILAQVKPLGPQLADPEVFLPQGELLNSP
Method: (§1) Recombinant ProSCCE is produced and purified as described above. Recombinant ProSCCE is activated with agarose-bound trypsin, as described in Brasttsand & Egelrud, 1999.
(§2) Proteins are extracted from human epidermis in the presence of a detergent (TENP-40 buffer extract) and incubated with active SCCE for 37 C. for 4 h. The reactions are stopped by boiling for 2 mins after Laemmli's sample buffer is added. The proteins are immunoblotted with antibodies against corneodesmosomal proteins.

Desmoglein = assay: as above; format: biochemical; conditions: human epidermis protein extract incubated with active recombinant enzyme at 37 C
Method: as §1, §2

Desmocollin = assay: as above; format: biochemical; conditions: human epidermis protein extract incubated with active recombinant enzyme at 37 C
Method: as §1, §2

Plakoglobin = biological target: T2, Plakoglobin (Homo sapiens, UniProt P14923); assay: as above; format: biochemical; conditions: human epidermis protein extract incubated with active recombinant enzyme at 37 C
T2 construct: The native form of plakoglobin has a molecular weight of between 85 kDa and 75 kDa; from tissue; host or cells: human epidermis (TENP-40 buffer extract)
T2 sequence (P14923 1-745): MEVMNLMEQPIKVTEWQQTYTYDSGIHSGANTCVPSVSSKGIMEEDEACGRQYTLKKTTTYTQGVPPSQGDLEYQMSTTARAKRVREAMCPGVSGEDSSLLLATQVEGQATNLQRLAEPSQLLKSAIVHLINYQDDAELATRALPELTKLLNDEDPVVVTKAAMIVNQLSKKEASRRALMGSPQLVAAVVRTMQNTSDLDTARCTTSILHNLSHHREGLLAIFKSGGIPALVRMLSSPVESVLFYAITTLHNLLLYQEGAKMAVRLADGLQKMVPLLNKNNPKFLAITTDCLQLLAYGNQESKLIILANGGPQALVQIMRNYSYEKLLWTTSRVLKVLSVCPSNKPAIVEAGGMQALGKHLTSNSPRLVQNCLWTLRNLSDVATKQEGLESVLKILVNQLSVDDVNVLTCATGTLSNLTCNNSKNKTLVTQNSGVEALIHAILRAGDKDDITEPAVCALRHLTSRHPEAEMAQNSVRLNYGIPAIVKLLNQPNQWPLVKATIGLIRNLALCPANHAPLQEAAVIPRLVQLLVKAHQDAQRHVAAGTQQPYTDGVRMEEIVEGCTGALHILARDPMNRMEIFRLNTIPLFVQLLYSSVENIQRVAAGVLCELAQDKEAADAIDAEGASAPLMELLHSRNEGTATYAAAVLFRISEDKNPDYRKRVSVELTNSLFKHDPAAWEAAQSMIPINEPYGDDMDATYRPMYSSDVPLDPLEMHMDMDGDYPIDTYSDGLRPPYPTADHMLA
Method: as §1, §2

Envoplakin = biological target: T3, Envoplakin (Homo sapiens, UniProt Q92817); assay: as above; format: biochemical; conditions: human epidermis protein extract incubated with active recombinant enzyme at 37 C
T3 construct: The native form of Envoplakin has a molecular weight of between 124-209 kDa; from tissue; host or cells: human epidermis (TENP-40 buffer extract)
Method: as §1, §2

Desmoplakin = assay: as above; format: biochemical; conditions: human epidermis protein extract incubated with active recombinant enzyme at 37 C
Method: as §1, §2

T3 sequence (Q92817 whole entry): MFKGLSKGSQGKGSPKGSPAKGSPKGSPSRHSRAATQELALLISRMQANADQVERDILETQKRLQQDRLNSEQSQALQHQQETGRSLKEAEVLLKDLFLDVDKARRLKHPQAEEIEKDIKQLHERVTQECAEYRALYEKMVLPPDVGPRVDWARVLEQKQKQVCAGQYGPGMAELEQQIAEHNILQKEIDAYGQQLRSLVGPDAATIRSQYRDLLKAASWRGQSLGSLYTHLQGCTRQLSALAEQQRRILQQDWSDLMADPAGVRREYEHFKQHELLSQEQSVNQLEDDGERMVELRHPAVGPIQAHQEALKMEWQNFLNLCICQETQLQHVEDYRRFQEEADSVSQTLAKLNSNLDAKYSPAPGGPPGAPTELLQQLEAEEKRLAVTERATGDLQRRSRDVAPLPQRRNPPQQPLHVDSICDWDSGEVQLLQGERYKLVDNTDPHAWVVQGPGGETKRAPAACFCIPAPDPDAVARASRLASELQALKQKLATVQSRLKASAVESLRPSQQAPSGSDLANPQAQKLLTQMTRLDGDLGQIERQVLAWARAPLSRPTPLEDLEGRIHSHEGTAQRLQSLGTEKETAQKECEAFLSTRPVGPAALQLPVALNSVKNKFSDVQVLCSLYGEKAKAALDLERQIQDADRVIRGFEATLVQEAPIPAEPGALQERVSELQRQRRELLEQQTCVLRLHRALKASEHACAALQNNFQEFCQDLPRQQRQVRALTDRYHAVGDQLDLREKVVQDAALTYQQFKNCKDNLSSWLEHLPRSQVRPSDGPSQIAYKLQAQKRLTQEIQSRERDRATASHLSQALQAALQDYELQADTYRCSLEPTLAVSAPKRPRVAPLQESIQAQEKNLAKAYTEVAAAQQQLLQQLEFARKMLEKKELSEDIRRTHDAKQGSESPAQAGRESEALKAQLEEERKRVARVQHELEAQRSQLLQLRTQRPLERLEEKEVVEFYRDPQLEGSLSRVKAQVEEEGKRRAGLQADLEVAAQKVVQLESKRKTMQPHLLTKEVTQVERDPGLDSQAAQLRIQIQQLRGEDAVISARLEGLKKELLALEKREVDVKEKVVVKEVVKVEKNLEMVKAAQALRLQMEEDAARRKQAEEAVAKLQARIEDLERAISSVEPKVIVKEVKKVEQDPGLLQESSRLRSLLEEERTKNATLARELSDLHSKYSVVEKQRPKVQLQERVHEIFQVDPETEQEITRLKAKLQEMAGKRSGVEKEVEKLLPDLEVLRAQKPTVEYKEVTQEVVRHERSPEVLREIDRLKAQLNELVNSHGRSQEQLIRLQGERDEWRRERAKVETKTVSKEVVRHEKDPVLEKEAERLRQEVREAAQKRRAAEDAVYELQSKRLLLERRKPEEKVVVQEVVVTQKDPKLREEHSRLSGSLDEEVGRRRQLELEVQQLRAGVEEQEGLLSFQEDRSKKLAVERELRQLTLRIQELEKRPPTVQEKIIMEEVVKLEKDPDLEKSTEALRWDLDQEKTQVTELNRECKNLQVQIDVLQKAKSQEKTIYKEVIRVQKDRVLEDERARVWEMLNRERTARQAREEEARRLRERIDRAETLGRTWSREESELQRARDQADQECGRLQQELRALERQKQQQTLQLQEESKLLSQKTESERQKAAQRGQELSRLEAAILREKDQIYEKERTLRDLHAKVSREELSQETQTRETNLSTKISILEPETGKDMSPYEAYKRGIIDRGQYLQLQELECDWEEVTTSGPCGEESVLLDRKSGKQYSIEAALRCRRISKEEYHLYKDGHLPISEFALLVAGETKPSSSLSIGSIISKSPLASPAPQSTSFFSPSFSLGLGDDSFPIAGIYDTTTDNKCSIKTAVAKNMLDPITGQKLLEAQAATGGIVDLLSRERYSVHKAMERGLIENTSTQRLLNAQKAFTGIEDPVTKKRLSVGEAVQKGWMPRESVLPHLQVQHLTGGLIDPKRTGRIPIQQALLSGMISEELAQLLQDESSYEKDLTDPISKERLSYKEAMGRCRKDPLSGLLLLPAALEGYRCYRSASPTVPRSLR

proteolysis of Corneodesmosin (Corneodesmosin): proteolysed
proteolysis of Plakoglobin (Plakoglobin): proteolysed
proteolysis of Envoplakin (Envoplakin): proteolysed
Substance: SCTE: recombinant Stratum Corneum Tryptic Enzyme expressed in an active form
number of corneodesmosomes in treated versus untreated stratum corneum [1]: decrease significantly
proteolysis of Desmoglein (Desmoglein): proteolysed
proteolysis of Desmocollin (Desmocollin): proteolysed
proteolysis of Desmoplakin (Desmoplakin): proteolysed
